One may read the DC50 as the midpoint of the concentration-degradation curve. A low value points to a more potent degrader.

Test [1] addresses T1, PTPN2 (HiBIT-PTPN2 in 293T.109 cells) (Homo sapiens, UniProt P17706).
T1 construct: expressed in transfected cells; host or cells: 293T.109 (293T WT from ATCC)
T1 sequence (P17706 1-415): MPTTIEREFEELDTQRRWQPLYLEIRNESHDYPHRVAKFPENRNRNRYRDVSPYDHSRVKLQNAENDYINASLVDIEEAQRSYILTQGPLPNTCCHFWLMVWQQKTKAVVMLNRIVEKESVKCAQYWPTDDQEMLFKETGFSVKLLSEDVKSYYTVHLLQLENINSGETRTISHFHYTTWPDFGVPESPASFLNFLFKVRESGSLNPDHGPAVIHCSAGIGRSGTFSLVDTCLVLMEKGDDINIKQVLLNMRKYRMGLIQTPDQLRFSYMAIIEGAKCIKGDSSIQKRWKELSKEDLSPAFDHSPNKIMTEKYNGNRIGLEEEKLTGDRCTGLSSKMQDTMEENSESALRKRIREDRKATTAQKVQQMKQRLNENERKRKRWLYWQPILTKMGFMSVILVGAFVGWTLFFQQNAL
Kind of test: HiBiT Degradation 293T.109 PTPN2 (Nano-Glo HiBiT Lytic Assay). As to conditions: 24.0 hours. The format is cell-based. From the text: Dulbecco's modified Eagle medium (DMEM) without phenol red and fetal bovine serum (FBS) were purchased from Gibco (Grand Island, NY, USA). Nano-Glo® HiBIT Lytic Assay System was purchased from Promega (Madison, WI, USA). 293T.109 (HiBIT-PTPN2) cell line was generated by ectopically expressing PTPN2 with N-terminal HiBIT fusion tag in 293T WT cell line purchased from ATCC (Manassas, VA, USA). Cell culture flasks and 384-well microplates were acquired from VWR (Radnor, PA, USA).
PTPN2 degradation was determined based on quantification of luminescent signal using Nano-Glo® HiBIT Lytic Assay kit. Test compounds were added to the 384-well plate from a top concentration of 10 μM with 11 points, half log titration in duplicates. 293T.109 cells were added into 384-well plates at a cell density of 5000 cells per well. The plates were kept at 37° C. with 5% CO2 for 24 hours. The cells treated in the absence of the test compound were the negative control and the cells without Nano-Glo® HiBIT Lytic reagent were the positive control. After 24-hour incubation, Nano-Glo® HiBiT Lytic Assay reagents were added to the cells. Luminescence was acquired on EnVision™ Multilabel Reader (PerkinElmer, Santa Clara, CA, USA).

The target of a further test is T2, PTPN2 (B16F10.4 cells) (Mus musculus, UniProt Q06180).
T2 construct: HiBiT; host or cells: B16F10.4
T2 sequence (Q06180 1-406): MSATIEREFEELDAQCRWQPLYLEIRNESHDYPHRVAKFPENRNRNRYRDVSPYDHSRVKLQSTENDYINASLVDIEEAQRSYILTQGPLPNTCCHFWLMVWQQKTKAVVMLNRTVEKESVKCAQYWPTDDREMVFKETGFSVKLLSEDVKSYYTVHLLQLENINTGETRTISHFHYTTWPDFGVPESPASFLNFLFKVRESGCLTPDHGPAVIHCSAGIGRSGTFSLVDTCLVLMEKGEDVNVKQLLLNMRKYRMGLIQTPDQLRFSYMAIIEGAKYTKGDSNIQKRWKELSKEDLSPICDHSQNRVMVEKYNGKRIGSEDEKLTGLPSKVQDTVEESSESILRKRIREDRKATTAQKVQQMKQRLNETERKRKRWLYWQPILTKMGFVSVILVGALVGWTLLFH
Kind of test: HiBiT Degradation B16F10.4 PTPN2. The format is cell-based. Conditions: 24.0 hours. In general terms: With HiBiT, luminescence reflects the tagged protein that the partner subunit can reach.

As to `CC1(C)C[C@@H](Nc2cccc(-c3sc(C(=O)O)c(OCC(=O)O)c3Cl)c2)CCN1S(=O)(=O)Cc1cccc(NC(=O)C2CCN(c3ccc4c5c(cccc35)N(C3CCC(=O)NC3=O)C4=O)CC2)c1` (stereo partly shown) [Example 216], the values for the half-maximal degradation concentration (DC50) (in test [1]; at PTPN2 (B16F10.4 cells)) were under 0.05 µM and 0.05 to 0.2 µM, respectively.
For `Cn1c(=O)n(C2CCC(=O)NC2=O)c2ccc(C3CCN(C(=O)Nc4cccc(CS(=O)(=O)N5CC[C@@H](Nc6cccc(-c7sc(C(=O)O)c(OCC(=O)O)c7Cl)c6)CC5(C)C)c4F)CC3)cc21` (stereo partly shown) [Example 131], the DC50 in test [1] was in the range of 0.2 to 1 µM; on PTPN2 (B16F10.4 cells) it was 0.05 to 0.2 µM.
`Cn1c(=O)n(C2CCC(=O)NC2=O)c2ccc(N3CC4(CCN(C(=O)Nc5cccc(CS(=O)(=O)N6CCC(Nc7cccc(-c8sc(C(=O)O)c(OCC(=O)O)c8Cl)c7)CC6)c5)CC4)C3)cc21` (stereo not shown) [Example 113, 3-(carboxymethoxy)-4-chloro-5-[3-[[1-[[3-[[2-[1-(2,6-dioxo-3-piperidyl)-3-methyl-2-oxo-benzimidazol-5-yl]-2,7-diazaspiro[3.5]nonane-7-carbonyl]amino]phenyl]methylsulfonyl]-4-piperidyl]amino]phenyl]thiophene-2-carboxylic acid]: the DC50 (in test [1]; at PTPN2 (B16F10.4 cells)) was 0.05 to 0.2 µM each time.
As for `Cn1c(=O)n(C2CCC(=O)NC2=O)c2ccc(-c3cccc(CC(=O)Nc4cccc(CS(=O)(=O)N5CC[C@H](Nc6cccc(-c7sc(C(=O)O)c(OCC(=O)O)c7Cl)c6)CC5(C)C)c4)c3)cc21` (stereo partly drawn) [Example 192, 3-(carboxymethoxy)-4-chloro-5-(3-(((4S)-1-((3-(2-(3-(1-(2,6-dioxopiperidin-3-yl)-3-methyl-2-oxo-2,3-dihydro-1H-benzo[d]imidazol-5-yl)phenyl)acetamido)benzyl)sulfonyl)-2,2-dimethylpiperidin-4-yl)amino)phenyl)thiophene-2-carboxylic acid], the DC50 (in test [1]; at PTPN2 (B16F10.4 cells)) was 0.05 to 0.2 µM in each case.
Regarding `Cn1c(=O)n(C2CCC(=O)NC2=O)c2ccc(C3CCN(C(=O)Nc4cccc(CS(=O)(=O)N5CC[C@H](Nc6cccc(-c7sc(C(=O)O)c(OCC(=O)O)c7Cl)c6)CC5(C)C)c4)CC3)c(Cl)c21` (stereo partly drawn) [Example 207, 3-(carboxymethoxy)-4-chloro-5-[3-[[(4S)-1-[[3-[[4-[4-chloro-1-(2,6-dioxo-3-piperidyl)-3-methyl-2-oxo-benzimidazol-5-yl]piperidine-1-carbonyl]amino]phenyl]methylsulfonyl]-2,2-dimethyl-4-piperidyl]amino]phenyl]thiophene-2-carboxylic acid], the 50% degradation concentration (DC50) (in test [1]; at PTPN2 (B16F10.4 cells)) was 0.05 to 0.2 µM each time.
Consider `CC1(C)C[C@H](Nc2cccc(-c3sc(C(=O)O)c(OCC(=O)O)c3Cl)c2)CCN1S(=O)(=O)Cc1cccc(NC(=O)N2CCC(c3ccc4c(C5CCC(=O)NC5=O)cnn4c3)CC2)c1` (stereo partly drawn) [Example 193, 3-(carboxymethoxy)-4-chloro-5-(3-(((4R)-1-((3-(4-(3-(2,6-dioxopiperidin-3-yl)pyrazolo[1,5-a]pyridin-6-yl)piperidine-1-carboxamido)benzyl)sulfonyl)-2,2-dimethylpiperidin-4-yl)amino)phenyl)thiophene-2-carboxylic acid], for which the DC50 (in test [1]; on PTPN2 (B16F10.4 cells)) was 0.2 to 1 µM each time.
On to `O=C(O)COc1c(C(=O)O)sc(-c2cccc(NC3CCN(S(=O)(=O)Cc4cccc(NC(=O)C5CCN(C(=O)CNc6cccc7c6CN(C6CCC(=O)NC6=O)C7=O)CC5)c4F)CC3)c2)c1Cl` (stereo not shown) [Example 73, 3-(carboxymethoxy)-4-chloro-5-(3-((1-((3-(1-((2-(2,6-dioxopiperidin-3-yl)-1-oxoisoindolin-4-yl)glycyl)piperidine-4-carboxamido)-2-fluorobenzyl)sulfonyl)piperidin-4-yl)amino)phenyl)thiophene-2-carboxylic acid], for which the DC50 was 0.05 to 0.2 µM in test [1] and at least 1 µM at PTPN2 (B16F10.4 cells).
With `CC1(C)C[C@@H](Nc2cccc(-c3sc(C(=O)O)c(OCC(=O)O)c3Cl)c2)CCN1S(=O)(=O)Cc1cccc(NC(=O)C2C[C@@H]3CN(C(=O)CNc4cccc5c4CN(C4CCC(=O)NC4=O)C5=O)C[C@@H]3C2)c1` (stereo partly drawn) [Example 97, 5-[3-[[(4S)-1-[[3-[[(3aR,6aS)-2-[2-[[2-(2,6-dioxo-3-piperidyl)-1-oxo-isoindolin-4-yl]amino]acetyl]-3,3a,4,5,6,6a-hexahydro-1H-cyclopenta[c]pyrrole-S-carbonyl]amino]phenyl]methylsulfonyl]-2,2-dimethyl-4-piperidyl]amino]phenyl]-3-(carboxymethoxy)-4-chloro-thiophene-2-carboxylic acid], the 50% degradation concentration (DC50) in test [1] is 0.2 to 1 µM; on PTPN2 (B16F10.4 cells), at least 1 µM.
In the same order, the values of `CC1(C)C[C@@H](Nc2cccc(-c3sc(C(=O)O)c(OCC(=O)O)c3Cl)c2)CCN1S(=O)(=O)Cc1cccc(NC(=O)COC2CCN(C(=O)CNc3cccc4c3CN(C3CCC(=O)NC3=O)C4=O)CC2)c1` (stereo partly shown) [Example 90] are under 0.05 µM and 0.2 to 1 µM.
As for `O=C(O)COc1c(C(=O)O)sc(-c2cccc(N[C@@H]3CCN(S(=O)(=O)Cc4cccc(NC(=O)N5CCC(c6ccc7c8c(cccc68)C(=O)N7C6CCC(=O)NC6=O)CC5)c4)C4(CC4)C3)c2)c1Cl` (stereo partly drawn) [Example 231, 3-(carboxymethoxy)-4-chloro-5-(3-(((7R)-4-((3-(4-(1-(2,6-dioxopiperidin-3-yl)-2-oxo-1,2-dihydrobenzo[cd]indol-6-yl)piperidine-1-carboxamido)benzyl)sulfonyl)-4-azaspiro[2.5]octan-7-yl)amino)phenyl)thiophene-2-carboxylic acid], the DC50 is 0.05 to 0.2 µM in test [1] and under 0.05 µM on PTPN2 (B16F10.4 cells).
Regarding `O=C(O)COc1c(C(=O)O)sc(-c2cccc(NC3CCN(S(=O)(=O)Cc4cccc(NC(=O)CN5CCC(n6nc(C7CCC(=O)NC7=O)c7ccccc76)CC5)c4)CC3)c2)c1Cl` (stereo not shown) [Example 54], the DC50 (in test [1]; on PTPN2 (B16F10.4 cells)) was at least 1 µM throughout.
As to `Cn1c(=O)n(C2CCC(=O)NC2=O)c2ccc(C3CCN(C(=O)Nc4cccc(CS(=O)(=O)N5CC[C@H](Nc6cc(-c7sc(C(=O)O)c(OCC(=O)O)c7Cl)ccc6F)CC5(C)C)c4)CC3)cc21` (stereo partly drawn) [Example 132, 3-(carboxymethoxy)-4-chloro-5-[3-[[(4S)-1-[[3-[[4-[1-(2,6-dioxo-3-piperidyl)-3-methyl-2-oxo-benzimidazol-5-yl]piperidine-1-carbonyl]amino]phenyl]methylsulfonyl]-2,2-dimethyl-4-piperidyl]amino]-4-fluoro-phenyl]thiophene-2-carboxylic acid], the half-maximal degradation concentration (DC50) in test [1] is 0.2 to 1 µM; at PTPN2 (B16F10.4 cells), 0.05 to 0.2 µM.
Consider `O=C(O)COc1c(C(=O)O)sc(-c2cccc(NC3CCN(S(=O)(=O)Cc4ccc(F)c(NC(=O)C5CN(C(=O)CNc6cccc7c6CN(C6CCC(=O)NC6=O)C7=O)C5)c4)CC3)c2)c1Cl` (stereo not shown) [Example 78], for which the results for the DC50 (in test [1]; on PTPN2 (B16F10.4 cells)) were under 0.05 µM and at least 1 µM, respectively.
As for `CCn1c(=O)n(C2CCC(=O)NC2=O)c2ccc(C3CCN(C(=O)Nc4cccc(CS(=O)(=O)N5CC[C@H](Nc6cccc(-c7sc(C(=O)O)c(OCC(=O)O)c7Cl)c6)CC5(C)C)c4)CC3)cc21` (stereo partly drawn) [Example 88, 3-(carboxymethoxy)-4-chloro-5-(3-(((4S)-1-((3-(4-(1-(2,6-dioxopiperidin-3-yl)-3-ethyl-2-oxo-2,3-dihydro-1H-benzo[d]imidazol-5-yl)piperidine-1-carboxamido)benzyl)sulfonyl)-2,2-dimethylpiperidin-4-yl)amino)phenyl)thiophene-2-carboxylic acid], the figures for the DC50 (in test [1]; on PTPN2 (B16F10.4 cells)) were under 0.05 µM and 0.05 to 0.2 µM, respectively.

The values above are taken from US20250302815A1, “PROTEIN TYROSINE PHOSPHATASE TARGETING LIGANDS” (CALICO LIFE SCIENCES LLC, priority 2021, published 2025).
